By GI50 is commonly meant the concentration giving 50% growth inhibition. The term TGI denotes the concentration giving total growth inhibition. A high value points to lower sensitivity of the cells.

Structures are written as SMILES. Values joined by “and” are separate entries in the source; they are usually repeats but may differ in a detail not shown here. Identical values can stand only once.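 Test compounds were applied to cells in 96-well plates for 48 hours at 5 doses. The concentration for 50% growth inhibition is given as GI50. At the TGI there is no net growth.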

Experimental findings from PubChem BioAssay (NCI) are described below.

Test systems include M14 melanoma; NCI-H23 lung; RPMI-8226 leukemia; HL-60(TB) leukemia; SW-620 colon; SNB-19 CNS; TK-10 renal; PC-3 prostate; IGROV1 ovarian; A498 renal.
Assay in all cases: DTP human tumour cell line panel, 48 h

Turning to `NC(C/[N+]([O-])=N/O)C(=O)O` (stereo not given), the GI50 in the assay on M14 melanoma was 28.9 µM and 37.5 µM and 24.4 µM; with NCI-H23 lung, 3.85 µM and 12.6 µM and 1.61 µM; in the assay with RPMI-8226 leukemia it was > 43.8 µM and 46.5 µM and 18 µM; in the assay on SW-620 colon, 9.22 µM and 19.7 µM and 15.1 µM; in the assay with SNB-19 CNS, 0.595 µM and 5.93 µM and 1.36 µM; in the assay on TK-10 renal it was > 66.2 µM and > 100 µM and 30.9 µM. The GI50 is 6.71 µM and 3.64 µM and 4.92 µM with PC-3 prostate; 0.107 µM and 0.967 µM and 0.348 µM in the assay on IGROV1 ovarian. Also, the TGI is above 459 µM in the assay on M14 melanoma; > 100 µM and 154 µM in the assay with NCI-H23 lung; above 500 µM with RPMI-8226 leukemia; > 100 µM and 176 µM in the assay on HL-60(TB) leukemia; > 100 µM and 417 µM with SW-620 colon; > 100 µM and 268 µM with SNB-19 CNS. Further, the TGI was above 459 µM in the assay with TK-10 renal; above 500 µM in the assay with PC-3 prostate; > 24.7 µM and > 100 µM and 256 µM in the assay on IGROV1 ovarian.

Turning to `C/C=C(\C)c1cc(=O)c2c(C)cc3c(c2o1)C(=O)c1c(O)c(C2CC(C)(N(C)C)C(O)C(C)O2)cc(C2CC(N(C)C)C(O)C(C)O2)c1C3=O` (stereo not given), the TGI in the assay on M14 melanoma is 0.312 µM; in the assay on NCI-H23 lung, 1.03 µM and 9.29 µM; with HL-60(TB) leukemia, 6.82 µM; with SW-620 colon, 1.96 µM and 16.7 µM; with SNB-19 CNS, 7.54 µM and 28.8 µM; with TK-10 renal, 0.729 µM. For the same molecule, the TGI is 1.42 µM with PC-3 prostate; 0.453 µM in the assay on A498 renal; 3.2 µM and > 27.6 µM with IGROV1 ovarian. The GI50 with SNB-19 CNS is 0.404 µM and 2.6 µM.

Take `N#CCCN(CCC#N)C(=O)c1cccc(C(=O)N(CCC#N)CCC#N)c1`: the TGI in the assay with M14 melanoma is above 100 µM; with NCI-H23 lung, above 56 µM; in the assay on RPMI-8226 leukemia, above 85.1 µM; in the assay on HL-60(TB) leukemia, above 73.3 µM; in the assay with SW-620 colon, 26.5 µM; with SNB-19 CNS, above 100 µM. Moreover, the TGI in the assay on TK-10 renal, with A498 renal and with IGROV1 ovarian was above 100 µM each time.

As to `N#CNC(N)=NCCO`, the TGI with M14 melanoma was above 100 µM; in the assay on NCI-H23 lung it was above 100 µM; in the assay on RPMI-8226 leukemia it was above 100 µM; in the assay on HL-60(TB) leukemia, above 100 µM; in the assay on SW-620 colon, 35.9 µM; in the assay with SNB-19 CNS, above 100 µM. Besides, the total growth inhibition concentration (TGI) with TK-10 renal, in the assay with A498 renal and in the assay on IGROV1 ovarian was above 100 µM each time.

Turning to `CC1=CC[C@@H]2C(C)(C)C(=O)CC[C@@]2(C)[C@@H]1COc1ccc2ccc(=O)oc2c1`, the GI50 with M14 melanoma is 12.9 µM; in the assay on NCI-H23 lung, 15.3 µM; in the assay with HL-60(TB) leukemia it was 7.3 µM; in the assay with SW-620 colon, 24.9 µM; in the assay with SNB-19 CNS, 32.9 µM; in the assay with TK-10 renal, 45.3 µM. Also, the GI50 with PC-3 prostate was 5.41 µM; with A498 renal it was 6.56 µM; in the assay with IGROV1 ovarian it was 16.2 µM. For the same molecule, the TGI is 32.7 µM in the assay with M14 melanoma; 61.2 µM in the assay with NCI-H23 lung; 29.2 µM in the assay on HL-60(TB) leukemia; above 100 µM in the assay with SW-620 colon; above 100 µM in the assay with SNB-19 CNS; above 100 µM in the assay with TK-10 renal. The TGI is 31.8 µM in the assay on PC-3 prostate, above 100 µM in the assay on A498 renal and 55.1 µM in the assay on IGROV1 ovarian.

For the molecule `[C-]#[O+].[Cl][Sn]([Cl])[Cl].[Cl][Sn]([Cl])[Cl].[Pt].c1ccc([PH+](c2ccccc2)c2ccccc2)cc1.c1ccc([PH+](c2ccccc2)c2ccccc2)cc1`, the GI50 in the assay with M14 melanoma is 30.7 µM; with NCI-H23 lung, 13.7 µM; with RPMI-8226 leukemia it was 27.7 µM; in the assay with HL-60(TB) leukemia it was 25.4 µM; in the assay with SW-620 colon, 35.1 µM; with SNB-19 CNS, 34.5 µM. Moreover, the results for the GI50 with TK-10 renal, in the assay on A498 renal and with IGROV1 ovarian were 25.5 µM, 18.8 µM and 20.9 µM, respectively. For the same molecule, the TGI in the assay with M14 melanoma is above 100 µM; in the assay with NCI-H23 lung it was 37 µM; in the assay on RPMI-8226 leukemia, 80.3 µM; with HL-60(TB) leukemia, 69.1 µM; in the assay on SW-620 colon, above 100 µM; in the assay with SNB-19 CNS it was above 100 µM. For the same molecule, the TGI in the assay with TK-10 renal is 52.3 µM; in the assay on A498 renal, 50.1 µM; in the assay with IGROV1 ovarian it was above 100 µM.

Regarding `Cc1nc2ccccc2c(=O)n1/N=C(\N=Nc1cc(Cl)ccc1Cl)c1cccc(-c2ccco2)c1`, the TGI with M14 melanoma is above 100 µM; with NCI-H23 lung, above 100 µM; in the assay with RPMI-8226 leukemia, above 100 µM; in the assay on HL-60(TB) leukemia, above 10 µM; with SW-620 colon, above 100 µM; in the assay on SNB-19 CNS, above 100 µM. Further, the TGI with TK-10 renal, in the assay with A498 renal and with IGROV1 ovarian was above 100 µM throughout.

As to `CC1(C)CCC[C@@]2(C)C1C[C@H](O)[C@@]1(C)O[C@@](C)([C@H](O)CO)CCC21` (stereo not given in full), the TGI with M14 melanoma is above 100 µM; in the assay with NCI-H23 lung, above 100 µM; with RPMI-8226 leukemia it was 45.2 µM; in the assay with HL-60(TB) leukemia, 48.1 µM; in the assay with SW-620 colon it was above 100 µM; in the assay with SNB-19 CNS it was above 100 µM. Also, the TGI with TK-10 renal was above 100 µM; with A498 renal, 77.1 µM; in the assay on IGROV1 ovarian, 70.6 µM.

Turning to `Cc1cc2cccnc2c2ncccc12`, the GI50 is 1.26 µM in the assay with M14 melanoma; 3.11 µM in the assay on NCI-H23 lung; 2.43 µM in the assay with RPMI-8226 leukemia; 2.34 µM in the assay with SW-620 colon; 2.27 µM with SNB-19 CNS; 0.713 µM in the assay on TK-10 renal. Besides, the GI50 was 1.57 µM in the assay with PC-3 prostate, 1.59 µM with A498 renal and 1.18 µM in the assay with IGROV1 ovarian. For the same molecule, the concentration for total growth inhibition (TGI) with M14 melanoma was 5.32 µM; in the assay with NCI-H23 lung, 87.6 µM; with RPMI-8226 leukemia, 9.07 µM; with SW-620 colon, 27.9 µM; in the assay on SNB-19 CNS, above 100 µM; in the assay on TK-10 renal, 23.9 µM. The TGI was 34.4 µM in the assay with PC-3 prostate, 7.3 µM in the assay with A498 renal and 6.44 µM with IGROV1 ovarian.

Take `Cc1ccc(C2CC(c3ccc([N+](=O)[O-])cc3)=Nc3ccccc3S2)cc1` (stereo not given): the TGI in the assay on M14 melanoma was above 100 µM; in the assay with NCI-H23 lung it was 77.4 µM; in the assay on RPMI-8226 leukemia it was 44.9 µM; with HL-60(TB) leukemia it was 43.4 µM; in the assay with SW-620 colon, 46.6 µM; with SNB-19 CNS it was above 100 µM. Besides, the TGI with TK-10 renal was above 100 µM; with A498 renal, 77.1 µM; in the assay with IGROV1 ovarian it was 87.5 µM.

In the case of `CC1(C)C(c2ccccc2)=NN(O)c2ccccc21`, the TGI in the assay on M14 melanoma, with NCI-H23 lung, in the assay with RPMI-8226 leukemia, with HL-60(TB) leukemia, in the assay on SW-620 colon and in the assay on SNB-19 CNS was above 100 µM in each case. Besides, the TGI in the assay on TK-10 renal, with A498 renal and in the assay with IGROV1 ovarian was above 100 µM each time.
